# Assay results taken from patent US20250163104A1, “MACROCYCLIC IMMUNOMODULATORS” (priority 2021, published 2025).
# *1 amine or outer side, *2 acyl side, *3 side chain or, on linkers, in order; H or OH if unused. Where a SMILES comes first, the peptide text is derived from it. Bridges are numbered along the chain shown (N, C = ends). [ ]: non-standard residue; d: D form. The star is where a group is joined. ξ: configuration not given here. Ala(morpholin-4-yl) = N[C@@H](CN1CCOCC1)C(=O)O; Phe(4-COOH) = N[C@@H](Cc1ccc(C(=O)O)cc1)C(=O)O; Trp(7-Me) = Cc1cccc2c(C[C@H](N)C(=O)O)c[nH]c12; Bip = N[C@@H](Cc1ccc(-c2ccccc2)cc1)C(=O)O; Phe(3-Me) = Cc1cccc(C[C@H](N)C(=O)O)c1; Phe(4-Me) = Cc1ccc(C[C@H](N)C(=O)O)cc1; γGlu = O=C(O)[C@H](CCC(=O)[*:2])N[*:1]; Val(3-OH) = CC(C)(O)[C@H](N)C(=O)O; hArg = N=C(N)NCCCC[C@H](N)C(=O)O; 4Pal = N[C@@H](Cc1ccncc1)C(=O)O; Cha = N[C@@H](CC1CCCCC1)C(=O)O; Cit = NC(=O)NCCC[C@H](N)C(=O)O; Ile(3ξ) = CCC(C)[C@H](N)C(=O)O; Thr(3ξ) = CC(O)[C@H](N)C(=O)O; Carboxymethyl = O=C(O)C*; Orn = NCCC[C@H](N)C(=O)O; Pra = C#CC[C@H](N)C(=O)O; Dab = NCC[C@H](N)C(=O)O; Dap = NC[C@H](N)C(=O)O
# Molecular target: T1, human PD-1 / PD-L1-Ig binding on Jurkat cell line over-expressing human PD-1 (Jurkat-PD-1) (Homo sapiens, UniProt Q15116)
# T1 construct: expressed in transfected cells; host or cells: Jurkat
# Test: Jurkat-PD-1 Cell Binding High-Content Screening Assay (CBA)
# Assay type: cell-based
# Conditions: Jurkat HPD1_PDL1 IC50, Jurkat-PD-1 cells, PE-labeled PD-L1-Ig 20 nM final
# Procedure, shortened: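 Jurkat-hPD-1 cells in DMEM with 10% fetal calf serum receive test compound and are held at 37° C for 2 h. PE-labeled PD-L1-Ig is added at 20 nM final and left for 1 hour. Cells are then fixed and Hoechst-stained, and binding is measured by imaging.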
# T1 sequence (Q15116 25-288): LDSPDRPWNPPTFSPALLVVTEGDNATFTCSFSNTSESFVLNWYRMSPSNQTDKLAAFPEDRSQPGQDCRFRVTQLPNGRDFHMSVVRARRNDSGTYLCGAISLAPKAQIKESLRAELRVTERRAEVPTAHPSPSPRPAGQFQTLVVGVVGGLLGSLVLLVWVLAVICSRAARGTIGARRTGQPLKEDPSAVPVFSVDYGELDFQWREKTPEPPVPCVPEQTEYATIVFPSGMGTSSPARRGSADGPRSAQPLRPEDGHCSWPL
row,SMILES,IC50 [nM]
1,CCC(C)[C@@H]1NC(=O)[C@H](Cc2ccc(-c3ccccc3)cc2)NC(=O)[C@H](CC(C)C)NC(=O)[C@H](Cc2cccc(C)c2)NC(=O)[C@H](CC(=O)O)NC(=O)[C@H](Cc2ccc(C(=O)O)cc2)NC(=O)[C@H](Cc2ccncc2)NC(=O)CSC[C@@H](C(=O)N[C@H](C)C(N)=O)NC(=O)[C@H](C(C)O)NC(=O)[C@H](C(C)C)NC(=O)[C@H](CC2CCCCC2)NC(=O)[C@H](CCN)NC(=O)[C@@H](CC(C)C)NC(=O)[C@H](Cc2cnc[nH]2)NC1=O (stereo partly drawn) [Compound 2611] ({CH2CO}-[4Pal][Phe(4-COOH)]D[Phe(3-Me)]L[Bip][Ile(3ξ)]H[dL][Dab][Cha]V[Thr(3ξ)]C[dA]-NH2; thioether N-14),19.2

# Same assay, conditions: Jurkat-PD-1 cells, PE-labeled PD-L1-Ig 20 nM final; read-out: Jurkat HPD1_PDL1 IC50
row,IC50 [nM],SMILES
1,8.8,CC(C)C[C@H]1NC(=O)[C@H](CCCN)NC(=O)[C@H](C(C)C)NC(=O)[C@H](Cc2ccc(-c3ccccc3)cc2)NC(=O)[C@H](C(C)C)NC(=O)[C@H](Cc2c[nH]c3ccccc23)NC(=O)[C@H](CC(=O)O)NC(=O)[C@H](Cc2ccc(OCC(=O)O)cc2)NC(=O)[C@H](CN)NC(=O)CSC[C@@H](C(=O)N[C@@H](C)C(N)=O)NC(=O)[C@H](CCCN)NC(=O)[C@H](C(C)C)NC(=O)[C@H](CC2CCCCC2)NC(=O)[C@H](CCN)NC1=O [Compound 1741] ({CH2CO}-[Dap]Y(Carboxymethyl)DWV[Bip]V[Orn][dL][Dab][Cha]V[Orn]CA-NH2; thioether N-14)
2,6,CC(C)C[C@H]1NC(=O)[C@H](CCCN)NC(=O)[C@H](C(C)C)NC(=O)[C@H](Cc2ccc(-c3ccccc3)cc2)NC(=O)[C@H](C(C)C)NC(=O)[C@H](Cc2c[nH]c3ccccc23)NC(=O)[C@H](CC(=O)O)NC(=O)[C@H](Cc2ccc(OCC(=O)O)cc2)NC(=O)[C@H](Cc2ccc(OCC(=O)O)cc2)NC(=O)CSC[C@@H](C(=O)N[C@@H](C)C(N)=O)NC(=O)[C@H](CCCN)NC(=O)[C@H](C(C)C)NC(=O)[C@H](CC2CCCCC2)NC(=O)[C@H](CCN)NC1=O [Compound 1743] ({CH2CO}-Y(Carboxymethyl)Y(Carboxymethyl)DWV[Bip]V[Orn][dL][Dab][Cha]V[Orn]CA-NH2; thioether N-14)
3,12.3,Cc1cccc(C[C@@H]2NC(=O)[C@H](CC(=O)O)NC(=O)[C@H](Cc3ccc(OCC(=O)O)cc3)NC(=O)[C@H](Cc3ccncc3)NC(=O)CSC[C@@H](C(=O)N[C@@H](CCN)C(N)=O)NC(=O)[C@H](C(C)O)NC(=O)[C@H](C(C)(C)O)NC(=O)[C@H](CC3CCCCC3)NC(=O)[C@H](CCN)NC(=O)[C@@H](CC(C)C)NC(=O)[C@H](CCCN)NC(=O)[C@H](CCCNC(N)=O)NC(=O)[C@H](Cc3ccc(-c4ccccc4)cc3)NC(=O)[C@H](C(C)C)NC2=O)c1 (stereo partly drawn) [Compound 2630] ({CH2CO}-[4Pal]Y(Carboxymethyl)D[Phe(3-Me)]V[Bip][Cit][Orn][dL][Dab][Cha][Val(3-OH)][Thr(3ξ)]C[Dab]-NH2; thioether N-14)
4,44.3,C#CC[C@H](NC(=O)[C@H](C)NC(=O)[C@@H]1CSCC(=O)N[C@@H](CN)C(=O)N[C@@H](Cc2ccc(OCC(=O)O)cc2)C(=O)N[C@@H](CC(=O)O)C(=O)N[C@@H](Cc2cccc(C)c2)C(=O)N[C@@H](C(C)C)C(=O)N[C@@H](Cc2ccc(-c3ccccc3)cc2)C(=O)N[C@@H](CCCNC(N)=O)C(=O)N[C@@H](CCCN)C(=O)N[C@H](CC(C)C)C(=O)N[C@@H](CCN)C(=O)N[C@@H](CC2CCCCC2)C(=O)N[C@@H](C(C)C)C(=O)N[C@@H]([C@@H](C)O)C(=O)N1)C(=O)O [Compound 2259]
5,15.6,CCC(C)[C@@H]1NC(=O)[C@H](Cc2ccc(-c3ccccc3)cc2)NC(=O)[C@H](C(C)C)NC(=O)[C@H](Cc2cccc(C)c2)NC(=O)[C@H](CC(=O)O)NC(=O)[C@H](Cc2ccc(C(=O)O)cc2)NC(=O)[C@H](Cc2ccncc2)NC(=O)CSC[C@@H](C(N)=O)NC(=O)[C@H](CC(N)=O)NC(=O)[C@H](C(C)C)NC(=O)[C@H](CC2CCCCC2)NC(=O)[C@H](CCN)NC(=O)[C@@H](CC(C)C)NC(=O)[C@H](CCCN)NC1=O (stereo partly drawn) [Compound 2279] ({CH2CO}-[4Pal][Phe(4-COOH)]D[Phe(3-Me)]V[Bip][Ile(3ξ)][Orn][dL][Dab][Cha]VNC-NH2; thioether N-14)

# More lines, now with the values behind:
row,SMILES,IC50 [nM]
1,Cc1ccc(C[C@@H]2NC(=O)[C@H](C(C)O)NC(=O)CSC[C@@H](C(=O)N[C@@H](CCN)C(N)=O)NC(=O)[C@H](Cc3c[nH]cn3)NC(=O)[C@H](C(C)(C)O)NC(=O)[C@H](CC3CCCCC3)NC(=O)[C@H](CCN)NC(=O)[C@@H](CC(C)C)NC(=O)[C@H](CCCN)NC(=O)[C@H](Cc3ccc(OCC(=O)O)cc3)NC(=O)[C@H](Cc3ccc(-c4ccccc4)cc3)NC(=O)[C@H](Cc3ccc(OCC(=O)O)cc3)NC(=O)[C@H](Cc3cccc(C)c3)NC(=O)[C@H](CC(=O)O)NC2=O)cc1 (stereo partly drawn) [Compound 2671] ({CH2CO}-[Thr(3ξ)][Phe(4-Me)]D[Phe(3-Me)]Y(Carboxymethyl)[Bip]Y(Carboxymethyl)[Orn][dL][Dab][Cha][Val(3-OH)]HC[Dab]-NH2; thioether N-14),9.2
2,CC(C)C[C@H]1NC(=O)[C@H](CCCN)NC(=O)[C@H](CCCNC(N)=O)NC(=O)[C@H](Cc2ccc(-c3ccccc3)cc2)NC(=O)[C@H](C(C)C)NC(=O)[C@H](Cc2c[nH]c3ccccc23)NC(=O)[C@H](CC(=O)O)NC(=O)[C@H](Cc2ccc(OCC(=O)O)cc2)NC(=O)[C@H](CN)NC(=O)CSC[C@@H](C(=O)N[C@@H](C)C(N)=O)NC(=O)[C@H]([C@@H](C)O)NC(=O)[C@H](C(C)C)NC(=O)[C@H](Cc2ccc(O)cc2)NC(=O)[C@H](CCN)NC1=O [Compound 1346] ({CH2CO}-[Dap]Y(Carboxymethyl)DWV[Bip][Cit][Orn][dL][Dab]YVTCA-NH2; thioether N-14),95.8
3,Cc1cccc(C[C@@H]2NC(=O)[C@H](CC(=O)O)NC(=O)[C@H](Cc3ccc(OCC(=O)O)cc3)NC(=O)[C@H](CCCCNC(=N)N)NC(=O)CSC[C@@H](C(=O)N[C@@H](CO)C(=O)N[C@@H](CCCCN)C(N)=O)NC(=O)[C@H](CO)NC(=O)[C@H](C(C)C)NC(=O)[C@H](CC3CCCCC3)NC(=O)[C@H](CCN)NC(=O)[C@@H](CC(C)C)NC(=O)[C@H](CCCN)NC(=O)[C@H](CCCNC(N)=O)NC(=O)[C@H](Cc3ccc(-c4ccccc4)cc3)NC(=O)[C@H](C(C)C)NC2=O)c1 [Compound 2593] ({CH2CO}-[hArg]Y(Carboxymethyl)D[Phe(3-Me)]V[Bip][Cit][Orn][dL][Dab][Cha]VSCSK-NH2; thioether N-14),3.9
4,C#CC[C@H](NC(=O)[C@H](CCN)NC(=O)[C@@H]1CSCC(=O)N[C@@H](CN2CCOCC2)C(=O)N[C@@H](Cc2ccc(OCC(=O)O)cc2)C(=O)N[C@@H](CC(=O)O)C(=O)N[C@@H](Cc2cccc(C)c2)C(=O)N[C@@H](Cc2ccc(OCC(=O)O)cc2)C(=O)N[C@@H](Cc2ccc(-c3ccccc3)cc2)C(=O)N[C@@H](Cc2ccc(OCC(=O)O)cc2)C(=O)N[C@@H](CCCN)C(=O)N[C@H](CC(C)C)C(=O)N[C@@H](CCN)C(=O)N[C@@H](CC2CCCCC2)C(=O)N[C@@H](C(C)(C)O)C(=O)N[C@@H]([C@@H](C)O)C(=O)N1)C(N)=O [Compound 1859] ({CH2CO}-[Ala(morpholin-4-yl)]Y(Carboxymethyl)D[Phe(3-Me)]Y(Carboxymethyl)[Bip]Y(Carboxymethyl)[Orn][dL][Dab][Cha][Val(3-OH)]TC[Dab][Pra]-NH2; thioether N-14),2.1
5,C#CC[C@H](NC(=O)CC[C@H](NC(=O)[C@H](CCN)NC(=O)[C@@H]1CSCC(=O)N[C@@H](CCN)C(=O)N[C@@H](Cc2ccc(OCC(=O)O)cc2)C(=O)N[C@@H](CC(=O)O)C(=O)N[C@@H](Cc2cccc(C)c2)C(=O)N[C@@H](Cc2ccc(C(=O)O)cc2)C(=O)N[C@@H](Cc2ccc(-c3ccccc3)cc2)C(=O)N[C@@H](Cc2ccc(C(=O)O)cc2)C(=O)N[C@@H](CCCN)C(=O)N[C@H](CC(C)C)C(=O)N[C@@H](Cc2cnc[nH]2)C(=O)N[C@@H](CC2CCCCC2)C(=O)N[C@@H](C(C)(C)O)C(=O)N[C@@H](CCC(=O)O)C(=O)N1)C(=O)O)C(N)=O [Compound 2678] ({CH2CO}-[Dab]Y(Carboxymethyl)D[Phe(3-Me)][Phe(4-COOH)][Bip][Phe(4-COOH)][Orn][dL]H[Cha][Val(3-OH)]EC[Dab][γGlu][Pra]-NH2; thioether N-14),12.2
6,Cc1cccc2c(C[C@@H]3NC(=O)[C@H](CC(=O)O)NC(=O)[C@H](Cc4ccc(OCC(=O)O)cc4)NC(=O)[C@H](CN)NC(=O)CSC[C@@H](C(=O)N[C@@H](CCN)C(N)=O)NC(=O)[C@H]([C@@H](C)O)NC(=O)[C@H](C(C)C)NC(=O)[C@H](CC4CCCCC4)NC(=O)[C@H](CCN)NC(=O)[C@@H](CC(C)C)NC(=O)[C@H](CCCN)NC(=O)[C@H](C(C)C)NC(=O)[C@H](Cc4ccc(-c5ccccc5)cc4)NC(=O)[C@H](C(C)C)NC3=O)c[nH]c12 [Compound 2018] ({CH2CO}-[Dap]Y(Carboxymethyl)D[Trp(7-Me)]V[Bip]V[Orn][dL][Dab][Cha]VTC[Dab]-NH2; thioether N-14),335
7,CC(C)C[C@H]1NC(=O)[C@H](CCCN)NC(=O)[C@H](CCCNC(N)=O)NC(=O)[C@H](Cc2ccc(-c3ccccc3)cc2)NC(=O)[C@H](C(C)C)NC(=O)[C@H](Cc2c[nH]c3ccccc23)NC(=O)[C@H](CC(=O)O)NC(=O)[C@H](Cc2ccc(O)cc2)NC(=O)[C@H](Cc2ccc(OCC(=O)O)cc2)NC(=O)CSC[C@@H](C(=O)N[C@@H](C)C(N)=O)NC(=O)[C@H]([C@@H](C)O)NC(=O)[C@H](C(C)C)NC(=O)[C@H](CC2CCCCC2)NC(=O)[C@H](CCCNC(=N)N)NC1=O [Compound 1154] ({CH2CO}-Y(Carboxymethyl)YDWV[Bip][Cit][Orn][dL]R[Cha]VTCA-NH2; thioether N-14),9.2
